Patent US11213527B2, “Inhibitory effect of low molecular weight compound on cancer and fibrosis” (NATIONAL UNIVERSITY CORPORATION TOTTORI UNIVERSITY, priority 2014, dated 2022)

Tests used:
[1] = system: fibrosis markers TGFβ, α-SMA, and COL1A1; assay: Real-time PCR of fibrosis markers in LX-2 cells; assay type: cell-based, human; conditions: compound+TGFβ, with increasing concentration
Description: A human liver stellate cell line (LX-2 cells) was maintained and cultured in a DMEM containing 10% FBS. The cells used for experiments were suspended in a DMEM containing 1% FBS and plated. The cell density was at about 2.0×10^5 cell/cm^2.
A real-time PCR was carried out to examine an inhibitory effect of each low-molecular-weight compound on fibrosis. The real-time PCR was conducted under conditions indicated in FIG. 55 and the following sections 9.4.1 to 9.4.2. Note that TGFβ, α-SMA, and COL1A1 are fibrosis markers.
A pre-Mix was prepared by using MilliQ water: 5.2 μL/sample, MgCl2: 0.8 μl/sample, 10 μM primer F: 0.5 μl, 10 μM primer R: 0.5 μl, and LightCycler FastStart DNA Master SYBER Green I (1a+1b): […]/sample. Next, 8 μL of the pre-Mix was pipetted into each well. Then, 2 μL of the sample was added thereto.

[2] = system: squamous cell carcinoma cells (HSC2; HSC3 for IC-2); assay: Anti-tumor effect on squamous cell carcinoma cells (TetraColor ONE); assay type: cell-based; conditions: HSC2 (HSC3 also for IC-2); 48 hours
Description: HSC2 cells (a squamous cell carcinoma cell line) were cultured in a DMEM on a 10-cm cell culture dish (TPP Techno Plastic Products AG, Trasadingen, Switzerland) at 5% CO2, 37° C., and a humidity of 100%. The cells at 70-90% confluency were to be split and washed with PBS (−). Next, 300 μL of Trypsin/EDTA was added to 2 mL of PBS (−) and the cells were incubated with this solution at 37° C. for 5 min to detach the cells. Then, 5 mL of DMEM was used to recover the cells. The recovered cells were centrifuged at 1000 rpm for 3 min to remove a supernatant. The pelleted cells were suspended in DMEM and subcultured at 1:4.
First, 2.5×10^3 of HSC2 cells were seeded on each well of a 96-well plate (TPP). After 48 hours from the low-molecular-weight compound treatment, 100 μL of 10% TetraColor ONE (SEIKAGAKU CORPORATION, Tokyo, Japan) was added and the mixture was then incubated at 37° C. After that, absorbance (at a measurement wavelength of 450 nm/a control wavelength of 600 nm) was measured by a 96-well microplate reader (TECAN, Zurich, Switzerland). The same procedure was used to investigate an anti-tumor effect of IC-2 on a squamous cell carcinoma cell line HSC3 after culturing.

[3] = system: colon cancer cells (DLD-1, HCT 116, colo 205); assay: Anti-tumor effect on colon cancer cells (TetraColor ONE); assay type: cell-based; conditions: 48 hours
Description: Colon cancer cells (DLD-1, HCT 116, colo 205) were cultured in a DMEM on a 10-cm cell culture dish (TPP Techno Plastic Products AG, Trasadingen, Switzerland) at 5% CO2, 37° C., and a humidity of 100%. The cells at 70-90% confluency were split and washed with PBS (−). Next, 300 μL of Trypsin/EDTA was added to 2 mL of PBS (−) and the cells were incubated with this solution at 37° C. for 5 min to detach the cells. Then, 5 mL of DMEM was used to recover the cells. The recovered cells were centrifuged at 1000 rpm for 3 min to remove a supernatant. Then the cells were suspended in DMEM at 1:4 and subcultured.
First, 5×10^5 colon cancer cells (DLD-1, HCT 116, or colo 205) were seeded on a 96-well plate (TPP). Forty-eight hours after the low-molecular-weight compound treatment, 100 μL of 10% TetraColor ONE (SEIKAGAKU CORPORATION, Tokyo, Japan) was added and the mixture was then incubated at 37° C. After that, absorbance (at a measurement wavelength of 450 nm/a control wavelength of 600 nm) was measured by using a 96-well microplate reader (TECAN, Zurich, Switzerland).

[4] = system: Wnt/β-catenin signal; assay: Dual-luciferase reporter assay in HSC2 cells; assay type: cell-based; conditions: 48 hours
Description: First, 5×10^4 of HSC2 cells were seeded on each well of a 24-well plate. After 24 hours, transfection was carried out by using 1 μL of lipofectamine 2000 (Invitrogen, Life Technologies Corp., Carlsbad, Calif.), 50 ng of pTCF4-CMVpro-FLuc, and 2.5 ng of pCMVpro-Rluc. After 48 hours from the low-molecular-weight compound treatment, 100 μL of 20% Passive Lysis Buffer (PROMEGA, Wisconsin, USA) was added to each well of the 24-well plate. The plate was shaken at ordinary temperature for 15 min and was then allowed to stand overnight at −30° C. On the following day, a Dual-Luciferase (a registered trademark) Reporter Assay System (PROMEGA) was used, and luciferase activity was then measured by using a MiniLumat LB 9506 (Berthold Technologies, Bad Wildbad, German).

[5] = system: Wnt/β-catenin signal; conditions: induces differentiation of the mesenchymal stem cell into hepatocytes; cited from earlier work
[6] = system: CD44-negative and CD44-positive HuH7 cells; assay: Sphere formation capability of sorted HuH7 cells; assay type: cell-based, human; conditions: 50 μM IC-2, 10 μM PN-3-13; one week
Description: First, HuH7 cells were collected. Next, the cells were stained with an anti-human CD44 monoclonal antibody (Cell Signaling Technology Inc., Danvers, Mass., USA)), and then with an Alexa 488-labeled goat anti-mouse IgG antibody. After that, a Beckman Coulter-MoFlo XDP (Beckman Coulter Inc., Fullerton, Calif., USA) was used to sort the cells into a CD44-negative fraction and a CD44-positive fraction. The sorted cells were seeded at 5×10^4 cells/well on a 24-well ultra-low-attachment multiwell plate (Corning, N.Y., USA). Subsequently, the cells were cultured at 37° C. in the presence of 5% CO2 in a DMEM/Nutrient Mixture F-12 Ham (Sigma-Aldrich, St. Louis, Mo., USA) containing 20 ng/mL of recombinant human epidermal growth factor, 20 ng/mL of human basic fibroblast growth factor, 1×B27, and L-glutamine. Twenty-four hours after the plating, 1% DSMO, 50 μM IC-2, and 10 μM PN-3-13 were each added to the corresponding well and the cells were further cultured. One week after the chemical treatment, the number of spheres (with a size of 100 μm or larger) in 15 visual fields/well was counted.

With `O=C1[C@H](Cc2ccccc2)N2C(=O)CCN(C(=O)NCc3ccccc3)[C@H]2CN1Cc1cccc2ccccc12` [IC-2] the “level of expression of COL1A1” value ([1]; 24 or 48 hours) was “decreased”, the “level of expression of α-SMA” value ([1]; 24 or 48 hours) was “remarkably reduced” and the “level of expression of TGFβ” value ([1]; 24 hours) was “decreased”. The “level of expression of TGFβ” value ([1]; 48 hours) was “decreased”, the “inhibitory effects on proliferation of the squamous cell carcinoma cells” value [2] was “exerted inhibitory effects on proliferation” and the “inhibitory effect on proliferation of the colon cancer cells” value [3] was “exerted an inhibitory effect on proliferation”. The “inhibitory effect on a Wnt/β-catenin signal in the squamous cell carcinoma cells” value [4] was “exerted an inhibitory effect”, the “inhibition of a Wnt/β-catenin signal in a mesenchymal stem cell” value [5] was “inhibit a Wnt/β-catenin signal” and the “formation of spheres, CD44-negative HuH7 cells” value [6] was “inhibited formation of spheres”. For the same compound, the “formation of spheres, CD44-positive HuH7 cells” value [6] was “inhibited formation of spheres”.
